According to PubChem BioAssay AID248 (DTP/NCI, 2004):
Toxic doses and inconclusive results are not listed. No stated cut-off is given here; in the data, active means T/C of 150% or more; inactive means T/C below 125%.

System: L1210 leukemia ip in BDF1 mice, survival T/C
Assay: NCI In Vivo Anticancer Drug Screen. Data for tumor model L1210 Leukemia (intraperitoneal) in B6D2F1 (BDF1) mice
Details: endpoint: mean survival time, higher = longer survival
How it was run: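 Value reflects the ratio of survival in compound-treated mice to survival in vehicle-treated controls, with both groups carrying the same transplanted tumor.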

[1] = dose: 100.0 mg/kg/injection, schedule: Q01DX001 (ip), vehicle: carboxymethylcellulose (CMC)
[2] = dose: 200.0 mg/kg/injection, schedule: Q01DX001 (ip), vehicle: carboxymethylcellulose (CMC)
[3] = dose: 400.0 mg/kg/injection, schedule: Q01DX001 (ip), vehicle: carboxymethylcellulose (CMC)
[4] = dose: 100.0 mg/kg/injection, schedule: Q01DX001 (ip), vehicle: saline
[5] = dose: 200.0 mg/kg/injection, schedule: Q01DX001 (ip), vehicle: saline
[6] = dose: 400.0 mg/kg/injection, schedule: Q01DX001 (ip), vehicle: saline

Measured: T/C

C/C=C(\c1ccccc1)[N+](=O)[O-]
inactive: dose: 12.5 mg/kg/injection, schedule: Q01DX001 (ip), vehicle: acetone 100 % of control | dose: 12.5 mg/kg/injection, schedule: Q04DX003 (ip), vehicle: acetone 98 % of control | dose: 18.75 mg/kg/injection, schedule: Q01DX009 (ip), vehicle: acetone 98 % of control | dose: 25.0 mg/kg/injection, schedule: Q01DX001 (ip), vehicle: acetone 92 % of control | dose: 25.0 mg/kg/injection, schedule: Q04DX003 (ip), vehicle: acetone 98 % of control | dose: 37.5 mg/kg/injection, schedule: Q01DX009 (ip), vehicle: acetone 106 % of control | dose: 50.0 mg/kg/injection, schedule: Q01DX001 (ip), vehicle: acetone 97 % of control | dose: 50.0 mg/kg/injection, schedule: Q04DX003 (ip), vehicle: acetone 100 % of control | dose: 75.0 mg/kg/injection, schedule: Q01DX009 (ip), vehicle: acetone 88 % of control | dose: 75.0 mg/kg/injection, schedule: Q04DX003 (ip), vehicle: saline 94 % of control

Cc1ncc(COCc2ccccc2)c(CO)c1OCc1ccccc1
inactive: [1] 92 % of control | [2] 94 % of control | [3] 94 % of control

O=c1[nH]nnc2c1nc(Cc1ccc([N+](=O)[O-])cc1)n2Cc1ccccc1
inactive: dose: 100.0 mg/kg/injection, schedule: Q01DX001 (ip), vehicle: saline with Tween-80 102 % of control | dose: 200.0 mg/kg/injection, schedule: Q01DX001 (ip), vehicle: saline with Tween-80 86 % of control | dose: 400.0 mg/kg/injection, schedule: Q01DX001 (ip), vehicle: saline with Tween-80 100 % of control

O=C1OC(OC(=O)c2ccccc2)C(Nc2ccccc2)=C1Br (configuration not stated)
inactive: dose: 100.0 mg/kg/injection, schedule: Q04DX003 (ip), vehicle: saline with Tween-80 91 % of control | dose: 200.0 mg/kg/injection, schedule: Q04DX003 (ip), vehicle: saline with Tween-80 87 % of control | dose: 400.0 mg/kg/injection, schedule: Q04DX003 (ip), vehicle: saline with Tween-80 94 % of control

COC1OC(COC(c2ccccc2)(c2ccccc2)c2ccccc2)C2OC12 (configuration not stated)
inactive: [4] 94 % of control | [5] 103 % of control | [6] 97 % of control

COc1ccc(-c2cc(C(=O)O)c3ccc(C)cc3n2)cc1
inactive: dose: 100.0 mg/kg/injection, schedule: Q01DX009 (ip), vehicle: saline with Tween-80 103 % of control | dose: 200.0 mg/kg/injection, schedule: Q01DX009 (ip), vehicle: saline with Tween-80 95 % of control | dose: 400.0 mg/kg/injection, schedule: Q01DX009 (ip), vehicle: saline with Tween-80 96 % of control

Clc1ccc2noc(-c3ccccc3)c2c1
inactive: [4] 104 % of control | dose: 100.0 mg/kg/injection, schedule: Q01DX009 (ip), vehicle: Klucel (hydroxypropylcellulose) (HPC) 95 % of control | dose: 100.0 mg/kg/injection, schedule: Q04DX003 (ip), vehicle: Klucel (hydroxypropylcellulose) (HPC) 100 % of control | [5] 100 % of control | dose: 200.0 mg/kg/injection, schedule: Q01DX009 (ip), vehicle: Klucel (hydroxypropylcellulose) (HPC) 102 % of control | dose: 200.0 mg/kg/injection, schedule: Q04DX003 (ip), vehicle: Klucel (hydroxypropylcellulose) (HPC) 94 % of control | [6] 98 % of control | dose: 400.0 mg/kg/injection, schedule: Q01DX009 (ip), vehicle: Klucel (hydroxypropylcellulose) (HPC) 95 % of control | dose: 400.0 mg/kg/injection, schedule: Q04DX003 (ip), vehicle: Klucel (hydroxypropylcellulose) (HPC) 90 % of control

CS(=O)(=O)c1ccc2c(c1)-c1ccc(N)cc1C2=O
inactive: [1] 117 % of control | [2] 102 % of control | [3] 102 % of control
